Assay results published in ChEMBL document CHEMBL1133211, “Synthesis of feruloyl-myo-inositols and their inhibitory effects on superoxide generation” (2000).

Tests used:
HL-60 [1] = test: Cell viability in TPA-induced superoxide (O2-) generation in human promyelocytic leukemia HL-60 cells, at 100 uM concentration; format: functional
HL-60 [2] = test: Inhibitory activity against TPA-induced superoxide (O2-) generation in human promyelocytic leukemia HL-60 cells, at 100 uM concentration; format: functional

SMILES: COC(=O)/C=C/c1ccc(O)c(OC)c1
- Cell viability (HL-60 [1]): ~80%
- inhibition at 100 µM (HL-60 [2]): ~2%

SMILES: COc1cc(/C=C/C(=O)O[C@@H]2[C@H](OC(C)=O)[C@@H](OC(C)=O)[C@H](OC(C)=O)[C@@H](OC(C)=O)[C@@H]2OC(=O)/C=C/c2ccc(OC(C)=O)c(OC)c2)ccc1OC(C)=O
- Cell viability (HL-60 [1]): ~60%
- inhibition at 100 µM (HL-60 [2]): ~100%

SMILES: COc1cc(/C=C/C(=O)O)ccc1O [FERULATE]
- Cell viability (HL-60 [1]): ~80%
- inhibition at 100 µM (HL-60 [2]): ~12%

SMILES: COc1cc(/C=C/C(=O)O[C@@H]2[C@H]3OC4(CCCCC4)O[C@@H]3[C@@H](OC(=O)/C=C/c3ccc(OC(C)=O)c(OC)c3)[C@@H]3OC4(CCCCC4)O[C@H]23)ccc1OC(C)=O
- Cell viability (HL-60 [1]): ~60%
- inhibition at 100 µM (HL-60 [2]): ~25%

SMILES: COc1cc(/C=C/C(=O)O[C@@H]2[C@H](O)[C@H](OC(C)=O)[C@@H](OC(C)=O)[C@H](OC(C)=O)[C@H]2OC(C)=O)ccc1OC(C)=O
- Cell viability (HL-60 [1]): ~45%
- inhibition at 100 µM (HL-60 [2]): ~5%

SMILES: COc1cc(/C=C/C(=O)O[C@@H]2[C@H](O)[C@@H](O)[C@H](O)[C@@H](O)[C@@H]2OC(=O)/C=C/c2ccc(O)c(OC)c2)ccc1O
- Cell viability (HL-60 [1]): ~80%
- inhibition at 100 µM (HL-60 [2]): ~20%

SMILES: COc1cc(/C=C/C(=O)O)ccc1OC(C)=O
- Cell viability (HL-60 [1]): ~82%
- inhibition at 100 µM (HL-60 [2]): ~2%

SMILES: COc1cc(/C=C/C(=O)O[C@H]2[C@@H](O)[C@@H](O)[C@H](OC(=O)/C=C/c3ccc(O)c(OC)c3)[C@@H](O)[C@@H]2O)ccc1O
- Cell viability (HL-60 [1]): ~80%
- inhibition at 100 µM (HL-60 [2]): ~5%

SMILES: COc1cc(/C=C/C(=O)O[C@H]2[C@@H](O)[C@@H](O)[C@H](OC(=O)/C=C/c3ccc(OC(C)=O)c(OC)c3)[C@@H](O)[C@@H]2O)ccc1OC(C)=O
- Cell viability (HL-60 [1]): ~72%
- inhibition at 100 µM (HL-60 [2]): ~20%

SMILES: CCOC(=O)/C=C/c1ccc(O)c(OC)c1 [ETHYL FERULATE]
- Cell viability (HL-60 [1]): ~80%
- inhibition at 100 µM (HL-60 [2]): ~9%

SMILES: COc1cc(/C=C/C(=O)O[C@@H]2[C@H]3OC4(CCCCC4)O[C@@H]3[C@@H](OC(=O)/C=C/c3ccc(O)c(OC)c3)[C@@H]3OC4(CCCCC4)O[C@H]23)ccc1O
- Cell viability (HL-60 [1]): ~60%
- inhibition at 100 µM (HL-60 [2]): ~30%
